# Experimental data taken from PMC10111423, “Antimalarial Imidazopyridines Incorporating an Intramolecular Hydrogen Bonding Motif: Medicinal Chemistry and Mechanistic Studies” (ACS Infectious Diseases, 2023).
# “Also recorded” adds a separate entry of the source.
# Assays:
# [1] = tested on: P. falciparum parasites; assay: Cellular heme fractionation (heme speciation) assay; type: cell-based, Plasmodium falciparum
# Experimental: At this juncture, it is noteworthy that a true hemozoin inhibitor causes a dose-dependent increase in “free” heme and a corresponding decrease in hemozoin. page 23: Table S2: Concentrations of fluorescent dyes used for confocal imaging of P. falciparum with respective excitation lasers and emission filter settings. Dye Concentration Excitation Laser Emission filter DRAQ 5 500 nM 580 nm 600-630 nm LysoTracker 100 nM 561 nm 575-630 nm Nile Red 100 nM 561 nm 575-630 nm ER-Tracker 100 nM 561 nm 575-630 nm MitoTracker 100 nM 561 nm 650-710 nm 1.3-NBD 50 nM 420 nm 500-550 nm 3.14-NBD 75 nM 420 nm 500-550 nm Heme Fractionation Assay […] The heme fractionation assay was performed according to the methods previously described.9 After the IC50 of the target compounds was determined, a counting plate was prepared by adding 10 μL of the isolated washed trophozoites to the corresponding wells of a flat-bottomed 96-well plate. […] The hemocytometer determined cell counts for these six samples were statistically compared to the cell counts determined by flow cytometry to test for agreement. 10 μL of cells from the counting plate were loaded onto a bright-lined hemocytometer, and five large squares were counted after 10 minutes of settling. The concentration of cells in each well of the plate was determined using equation 1: CH 1⁄4 […] […] Typically, 10,000 events were counted for each sample. […]
# [2] = Metabolite identification in mouse liver microsomes; type: in vitro ADME; conditions: NADPH-dependent
# Experimental: started by addition of NADPH (1 mM) as cofactor and shaken for 30 minutes at 37 °C. The
# reactions were then quenched by adding 300 µL of ice-cold acetonitrile containing internal
# standard (carbamazepine, 0.0236 µg/mL) and centrifuged. The supernatant was transferred to
# a fresh 96-well plate and analysed by LC-MS/MS (Agilent Rapid Resolution HPLC, AB
# SCIEX 4500 MS). The relative loss of parent compound over time was monitored and plots
# (concentration vs. time) were prepared per compound to determine the first order rate constant
# for compound depletion. This was in turn used to calculate half-life, in vitro intrinsic clearance
# and in vivo hepatic extraction ratio.6
# Metabolite Identification Studies
# The test compound (10 µM) was incubated at 37 °C in a solution containing 1 mg/ml
# microsomes (MLM, male mouse CD1, Lot No. 1510043, Xenotech), magnesium chloride (5
# mM) and NADPH (1 mM) in sodium phosphate buffer (100 mM, pH 7.4) for 60 minutes while
# shaking. The samples were then prepared by ice-cold acetonitrile precipitation, centrifuged,
# and filtered for LC-MS/MS analysis.
# Controls containing all the sample constituents (not incubated), and in which NADPH,
# microsomes or the test compound were individually excluded were also prepared and handled
# similarly to the test sample. Verapamil (10 µM) was incubated concomitantly as a positive
# Fluorescence Live-cell Microscopy […]
structure (smiles),measurement,setting,value
"CCN(CCNc1cc2[nH]c(-c3cccc(C(F)(F)F)c3)nc2cn1)Cc1ccc(Cl)cc1O [Compound 14, 5-Chloro-2-((ethyl(2-((2-(3-(trifluoromethyl)phenyl)-1H-imidazo[4,5-c]pyridin-6-yl)amino)ethyl)amino)methyl)phenol]",Levels of hemozoin (Hz) Fe,[1]; between 0.5–2× IC50,significant decrease; also recorded: decreased
same,"Levels of ""free"" heme Fe",[1]; increasing concentrations of compound,no statistically significant change; also recorded: no statistically significant effect
same,Number of metabolites identified,[2],4
